Experimental data reported in patent publication US20260242320A1, “USE OF CANNABIDIOL DERIVATIVE IN PREPARATION OF MEDICAMENT” (priority 2023, published 2026).
Entries after “also recorded” stand apart in the source; their conditions may differ.

Assays:
[1] = tested on: LPS-activated BV-2 cells; experiment: Cell morphology determination; assay type: cell-based; settings: 10 μM, LPS 200 ng/ml, 24 h
Description: BV-2 cells were seeded at a density of 2.5×10^5 cells per milliliter in 6-well plates and incubated for 12 h. Cells were incubated with CIAC001 (10 μM) in the absence or presence of LPS (200 ng/ml) for 24 h. The images of BV-2 cells were taken with an inverted microscope (Ts2-FL, Nikon Corporation, Tokyo, Japan) and analyzed by ImageJ. Statistic data are counted in at least three hundred cells.

[2] = tested on: morphine-conditioned mice; experiment: Morphine-induced conditioned place preference (CPP); assay type: in vivo; settings: 0.2 mg/kg i.p.
Description: (§1) Conditional place conditioning (CPP) was conducted using the classic 10-consecutive-day procedure. On days 1 and 2, each mouse was separately placed into the CPP apparatus for 15 min to habituate the apparatus. On day 3 (preconditioning), the time spent in each compartment was recorded to determine any preference for the two compartments. Mice were divided into three groups: vehicle group, 7.5 mg/kg morphine, as well as 7.5 mg/kg morphine+0.2 mg/kg CIAC001. During the conditioning phase, mice were separately isolated in the compartment for 30 min on 6 consecutive days. Mice were given morphine on days 4, 6, and 8, and vehicle (5 mL/kg) was administered on days 5, 7, and 9. The postconditioning phase was carried out 24 h after the last conditioning session. Each mouse was placed in the apparatus and explored freely, and the time spent in each compartment was recorded for 15 min. The CPP score(s) was calculated using the time spent in the drug-paired compartment minus the time spent in the vehicle-paired compartment.

[3] = tested on: IL-1β in mPFC, NAc and VTA; experiment: IL-1β expression in brain regions after chronic morphine; assay type: in vivo; settings: mice
Description: Total RNA was extracted from cells or mouse brains using the RNeasy Mini Kit. Isolated RNA was reverse-transcribed into cDNA using an RT2 Easy First Strand cDNA Synthesis Kit following the manufacturer's protocols. PCR amplification was conducted using synthetic primers, SYBR Green, and a TOptical Real-Time qPCR Thermal Cycler (Analytik Jena, Thuringia, Germany). The data were analyzed by the […] method, and Rpl711 or Rpl27 was used as an internal control.
as §1, with “The postconditioning phase was carried out 24 h after the last conditioning session.” left out

[4] = Respiratory rate determination; assay type: in vivo, mice; settings: CIAC001 20 mg/kg i.p.; THC 10 mg/kg i.p.
Description: Mice were intraperitoneally injected with 20 mg/kg CIAC001 or 10 mg/kg THC once daily. After 1 h, the mice were anesthetized with isoflurane by a small animal anesthesia machine (R500IE, RWD Life Science Co) on day 2 and day 5. The respiratory rate of mice was recorded three times within 20 s. The weights of mice were recorded every day.

[5] = Open field test; assay type: in vivo, mice; settings: 20 mg/kg i.p., seven consecutive days
Description: After two days of habitation, each mouse was placed in the open field, and the moving distances within 1 h and the grooming and rubbing numbers within the first 15 min was recorded as vehicle control (pre-test group). Next, each mouse was administered CIAC001 (20 mg/kg; i.p.) once daily for 7 days. 24 h after the last administration, the moving distances and the grooming and rubbing numbers were measured again to compare changes before and after CIAC001 treatment.

[6] = target: T1, nuclear PKM2 in BV-2 cells (Mus musculus, UniProt P52480); experiment: Subcellular localization of PKM2; assay type: cell-based; settings: BV-2, LPS 200 ng/mL, 10 μM, 6 h
T1 construct: endogenous in cells; host or cells: BV-2 cells
T1 sequence (P52480 whole entry): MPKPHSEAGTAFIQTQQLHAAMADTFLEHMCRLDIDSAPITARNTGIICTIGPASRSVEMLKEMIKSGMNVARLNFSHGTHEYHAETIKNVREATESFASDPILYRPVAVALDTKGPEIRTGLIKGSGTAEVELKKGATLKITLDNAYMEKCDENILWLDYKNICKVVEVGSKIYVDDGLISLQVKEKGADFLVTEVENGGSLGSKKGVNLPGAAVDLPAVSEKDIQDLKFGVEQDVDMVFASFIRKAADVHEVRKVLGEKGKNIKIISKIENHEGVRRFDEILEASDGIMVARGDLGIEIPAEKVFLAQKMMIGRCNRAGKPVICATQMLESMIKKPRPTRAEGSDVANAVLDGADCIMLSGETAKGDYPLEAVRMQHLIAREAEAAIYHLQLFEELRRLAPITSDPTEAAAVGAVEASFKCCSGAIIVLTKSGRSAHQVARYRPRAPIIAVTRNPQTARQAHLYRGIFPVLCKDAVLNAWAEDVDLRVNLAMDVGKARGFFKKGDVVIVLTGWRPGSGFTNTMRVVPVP
Description: BV-2 cells were treated with 200 ng/mL LPS and 10 μM CIAC001 for 6 h. Cells were washed, harvested with ice-cold PBS, and centrifuged at 800 g for 5 min at 4° C. Cells were lysed in cytoplasmic lysis buffer (10 mM HEPES pH 7.6, 10 mM KCl, 0.5 mM […], 1.5 mM MgCl2, and 1 mM DTT) plus the protease inhibitor cocktail for 20 min on ice. A final concentration of 0.5% NP40 was added to the lysate and incubated for 2 min on ice. Lysates were centrifuged at 2000 g for 10 min at 4° C., and the supernatants were cytoplasmic lysates. Pellets were washed twice with ice-cold PBS. Nuclear pellets were lysed for 30 min on ice with nuclear lysis buffer (10 mM Tris-HCl pH 7.6, 450 mM NaCl, 2 mM MgCl2, 0.5% NP-40, and 1 mM DTT) plus a protease inhibitor cocktail. Lysates were centrifuged at 12,000 g for 10 min at 4° C., and the supernatants were nuclear lysates. The nuclear lysates were diluted with low-salt buffer (10 mM Tris-HCl pH 7.6 and 2 mM MgCl2) to a final salt concentration of 150 mM in the lysates. The total protein concentrations in the nuclear and cytoplasmic extracts were determined by the BCA assay and then normalized. The lysate supernatants were denatured in 2× Laemmli sample buffer at 100° C. for 8 min for western blotting with the corresponding antibody.

[7] = target: T2, CB2 Receptor (Homo sapiens, UniProt P34972); experiment: cAMP measurement, forskolin-induced cAMP accumulation, CB2; assay type: cell-based; settings: cAMP assay
T2 construct: expressed in transfected cells; host or cells: GloSensor 22-F HEK293 cells
T2 sequence (P34972 whole entry): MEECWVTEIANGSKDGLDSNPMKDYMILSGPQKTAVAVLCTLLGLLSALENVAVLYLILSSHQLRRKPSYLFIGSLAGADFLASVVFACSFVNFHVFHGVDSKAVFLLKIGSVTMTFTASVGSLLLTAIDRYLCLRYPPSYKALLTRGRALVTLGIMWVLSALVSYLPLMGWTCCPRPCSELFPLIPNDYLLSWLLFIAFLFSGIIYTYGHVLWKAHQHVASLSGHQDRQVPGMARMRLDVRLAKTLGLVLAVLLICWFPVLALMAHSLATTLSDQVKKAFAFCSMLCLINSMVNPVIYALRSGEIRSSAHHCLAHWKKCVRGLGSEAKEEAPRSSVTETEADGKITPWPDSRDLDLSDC
Description: GloSensor 22-F HEK293 cells were transfected with plasmids encoding different receptors (CB1 and CB2). After 24 h, HEK293 cells were seeded at a density of 5×10^4 cells per well in 96-well plates and incubated for 8 h; then, the medium was removed, and 200 μL of serum-free DMEM medium containing 2% GloSensor cAMP substrate (Promega) was added. After 2 h incubation, the transfected cells were stimulated with different concentrations of ligands together with […]. The luminescence was recorded using a Multimode Plate Reader (En Vision, PerkinElmer).

[8] = tested on: hippocampus of transgene mice; experiment: Potential of hippocampus (LTP) measurement; assay type: in vivo
Description: Mouse brains were quickly removed following anesthetization using isoflurane and euthanasia by cervical dislocation and immersed in pre-chilled artificial cerebrospinal fluid (ACSF) for 3 minutes while continuously supplying O2 to the fluid to maintain brain activity. Then, the brain was then quickly fixed with glue onto a platform of a vibratome (with the olfactory bulb facing up and the hindbrain facing down) and placed in well-oxygenated, pre-chilled ACSF. The brain was then sliced at 300 μm per slice with a cutting speed of 0.14 mm/s, starting from the appearance of the hippocampus. The collected brain slices were divided into left and right hemispheres and incubated in an O2-filled water bath at 32° C. for 2 hours. Afterwards, computer software used for recording was adjusted to ensure a stable baseline. The incubated brain slices were placed in the center of an electrode, with the brightest line of the CA1 region in the hippocampus spanning diagonally across the baseline, and fixed with a grid and iron block inside the recording device. Each potential in the electrode was stimulated to find the optimal stimulation point. High-frequency stimulation was then performed at the optimal point. Software was then used to record the changes in electrical potential at each electrode point.

For `C=C(C)[C@@H]1CCC(C)=C[C@H]1c1c(O)cc(C(C)n2nccn2)cc1O` (stereo partly drawn) [CIAC001, (1′R,2′R)-4-(1-(2H-1,2,3-Triazol-2-yl)ethyl)-5′-methyl-2′-(prop-1-en-2-yl)-1′,2′,3′,4′-tetrahydro-[1,1′-biphenyl]-2,6-diol], the “LPS-induced morphological changes of microglia” value [1] was “considerably reversed”, the “expression of morphine-induced CPP” value [2] was “substantially decreased; also recorded: ameliorated” and the “morphine-induced IL-1β overexpression in mPFC, NAc and VTA” value [3] was “inhibited”. The respiratory rate [4] was “did not affect the respiratory rate”, the “grooming and rubbing behaviors (open field)” value [5] was “No apparent differences” and the “motor activity (open field)” value [5] was “No apparent differences”. The “LPS-induced translocation of nuclear PKM2” value [6] was “completely reversed; also recorded: inhibited LPS-induced translocation of nuclear PKM2”, the “CB2 receptor activity” value [7] was “no apparent CB1/CB2 activity” and the “increase of hippocampal potential” value [8] was ~500%.
